# Measured values taken from US9487516B2, “Antibacterial oxadiazolone derivatives” (priority 2013, dated 2016).
# Assays:
# Test in all cases: Bacterial growth minimal inhibitory concentration (microdilution, cation-adjusted Mueller-Hinton Broth)
# Assay type in all cases: cell-based
# [1] = test system: Acinetobacter baumanii T6474; conditions: Acinetobacter baumannii, multiply-resistant strain (in particular quinolone-resistant)
# Procedure: (§1) Minimal Inhibitory Concentrations (MICs; mg/L) were determined in cation-adjusted MuellerHinton Broth by a microdilution method following the description given in “Methods for Dilution Antimicrobial Susceptibility Tests for Bacteria that Grow Aerobically”, Approved standard, 7th ed., Clinical and Laboratory Standards Institute (CLSI) Document M7-A7, Wayne, Pa., USA, 2006.
# (§2) All Example compounds were tested against several Gram positive and Gram negative bacteria. […] Staphylococcus aureus A798, Enterococcus faecium A949 and Acinetobacter baumanii T6474 are multiply-resistant strains (in particular quinolone-resistant), while Moraxella catarrhalis A894 is a quinolone-sensitive strain and Staphylococcus aureus ATCC29213 is a methicillin-sensitive and quinolone-sensitive strain.
# [2] = test system: Enterococcus faecium A949; conditions: multiply-resistant strain (in particular quinolone-resistant), read-out: MIC for E. faecium A949
# Procedure: as §1, §2
# [3] = test system: Moraxella catarrhalis A894; conditions: quinolone-sensitive strain
# Procedure: as §1, §2
# [4] = test system: Staphylococcus aureus A798; conditions: multiply-resistant strain (in particular quinolone-resistant), read-out: MIC for S. aureus A798
# Procedure: as §1, §2
# [5] = test system: Staphylococcus aureus ATCC29213; conditions: methicillin-sensitive and quinolone-sensitive strain, read-out: MIC for S. aureus ATCC29213
# Procedure: as §1, §2
MIC [1] [µg/mL],MIC [2] [µg/mL],MIC [3] [µg/mL],MIC [4] [µg/mL],MIC [5] [µg/mL],SMILES
> 8,1,2,2,0.25,"CCCc1ccc(-n2nc(CCCN[C@@H]3Cn4c(=O)ccc5ccc(F)c3c54)oc2=O)cc1 [Example 1, (S)-9-fluoro-1-{3-[5-oxo-4-(4-propyl-phenyl)-4,5-dihydro-[1,3,4]oxadiazol-2-yl]-propylamino}-1,2-dihydro-pyrrolo[3,2,1-ij]quinolin-4-one]"
> 8,1,2,0.5,0.125,"CCCc1ccc(-n2nc(CCCN[C@H]3Cn4c(=O)cnc5ccc(F)c3c54)oc2=O)cc1 [Example 2, (R)-7-fluoro-6-{3-[5-oxo-4-(4-propyl-phenyl)-4,5-dihydro-[1,3,4]oxadiazol-2-yl]-propylamino}-5,6-dihydro-pyrrolo[1,2,3-de]quinoxalin-3-one]"
> 8,0.25,2,0.25,0.063,"CC(C)c1ccc(-n2nc(CCCN[C@@H]3Cn4c(=O)ccc5ccc(F)c3c54)oc2=O)cc1 [Example 3, (S)-9-fluoro-1-{3-[4-(4-isopropyl-phenyl)-5-oxo-4,5-dihydro-[1,3,4]oxadiazol-2-yl]-propylamino}-1,2-dihydro-pyrrolo[3,2,1-ij]quinolin-4-one]"
8,0.5,0.5,0.5,0.063,"CCSc1ccc(-n2nc(CCCN[C@@H]3Cn4c(=O)ccc5ccc(F)c3c54)oc2=O)cc1 [Example 4, (S)-1-{3-[4-(4-ethylsulfanyl-phenyl)-5-oxo-4,5-dihydro-[1,3,4]oxadiazol-2-yl]-propylamino}-9-fluoro-1,2-dihydro-pyrrolo[3,2,1-ij]quinolin-4-one]"
4,0.5,0.25,0.063,0.031,"CCSc1ccc(-n2nc(CCCN[C@H]3Cn4c(=O)cnc5ccc(F)c3c54)oc2=O)cc1 [Example 5, (R)-6-{3-[4-(4-ethylsulfanyl-phenyl)-5-oxo-4,5-dihydro-[1,3,4]oxadiazol-2-yl]-propylamino}-7-fluoro-5,6-dihydro-pyrrolo[1,2,3-de]quinoxalin-3-one]"
2,2,0.5,0.5,0.5,"O=C1COc2ccc(-n3nc(CCCN[C@H]4Cn5c(=O)cnc6ccc(F)c4c65)oc3=O)nc2N1 [Example 6, (R)-7-fluoro-6-{3-[5-oxo-4-(3-oxo-3,4-dihydro-2H-pyrido[3,2-b][1,4]oxazin-6-yl)-4,5-dihydro-[1,3,4]oxadiazol-2-yl]-propylamino}-5,6-dihydro-pyrrolo[1,2,3-de]quinoxalin-3-one]"
2,2,0.25,0.5,0.25,"O=C1COc2ccc(-n3nc(CCCN[C@@H]4Cn5c(=O)cnc6ccc(F)c4c65)oc3=O)nc2N1 [Example 7, (S)-7-fluoro-6-{3-[5-oxo-4-(3-oxo-3,4-dihydro-2H-pyrido[3,2-b][1,4]oxazin-6-yl)-4,5-dihydro-[1,3,4]oxadiazol-2-yl]-propylamino}-5,6-dihydro-pyrrolo[1,2,3-de]quinoxalin-3-one]"
0.5,0.5,0.125,0.25,0.125,"O=C1COc2ccc(-n3nc(CCCN[C@@H]4Cn5c(=O)ccc6ccc(F)c4c65)oc3=O)nc2N1 [Example 8, (S)-9-fluoro-1-{3-[5-oxo-4-(3-oxo-3,4-dihydro-2H-pyrido[3,2-b][1,4]oxazin-6-yl)-4,5-dihydro-[1,3,4]oxadiazol-2-yl]-propylamino}-1,2-dihydro-pyrrolo[3,2,1-ij]quinolin-4-one]"
1,0.5,0.125,0.25,0.125,"O=C1COc2ccc(-n3nc(CCCN[C@H]4Cn5c(=O)ccc6ccc(F)c4c65)oc3=O)nc2N1 [Example 9, (R)-9-fluoro-1-{3-[5-oxo-4-(3-oxo-3,4-dihydro-2H-pyrido[3,2-b][1,4]oxazin-6-yl)-4,5-dihydro-[1,3,4]oxadiazol-2-yl]-propylamino}-1,2-dihydro-pyrrolo[3,2,1-ij]quinolin-4-one]"
0.25,0.5,≤ 0.016,0.063,0.031,"O=C1COc2ccc(-n3nc(CCCN[C@@H]4Cn5c(=O)cnc6ccc(F)c4c65)oc3=O)cc2N1 [Example 10, (S)-7-fluoro-6-{3-[5-oxo-4-(3-oxo-3,4-dihydro-2H-benzo[1,4]oxazin-6-yl)-4,5-dihydro-[1,3,4]oxadiazol-2-yl]-propylamino}-5,6-dihydro-pyrrolo[1,2,3-de]quinoxalin-3-one]"
0.25,0.25,≤ 0.016,0.063,0.031,"O=C1COc2ccc(-n3nc(CCCN[C@@H]4Cn5c(=O)ccc6ccc(F)c4c65)oc3=O)cc2N1 [Example 11, (S)-9-fluoro-1-{3-[5-oxo-4-(3-oxo-3,4-dihydro-2H-benzo[1,4]oxazin-6-yl)-4,5-dihydro-[1,3,4]oxadiazol-2-yl]-propylamino}-1,2-dihydro-pyrrolo[3,2,1-ij]quinolin-4-one]"
0.25,0.25,≤ 0.016,0.031,0.031,"O=C1COc2ccc(-n3nc(CCCN[C@H]4Cn5c(=O)ccc6ccc(F)c4c65)oc3=O)cc2N1 [Example 12, (R)-9-fluoro-1-{3-[5-oxo-4-(3-oxo-3,4-dihydro-2H-benzo[1,4]oxazin-6-yl)-4,5-dihydro-[1,3,4]oxadiazol-2-yl]-propylamino}-1,2-dihydro-pyrrolo[3,2,1-ij]quinolin-4-one]"
0.25,0.25,≤ 0.016,0.031,0.031,"O=C1COc2ccc(-n3nc(CCCN[C@H]4Cn5c(=O)cnc6ccc(F)c4c65)oc3=O)cc2N1 [Example 13, (R)-7-fluoro-6-{3-[5-oxo-4-(3-oxo-3,4-dihydro-2H-benzo[1,4]oxazin-6-yl)-4,5-dihydro-[1,3,4]oxadiazol-2-yl]-propylamino}-5,6-dihydro-pyrrolo[1,2,3-de]quinoxalin-3-one]"
0.25,0.25,0.031,0.031,≤ 0.016,"O=C1CSc2ccc(-n3nc(CCCN[C@H]4Cn5c(=O)ccc6ccc(F)c4c65)oc3=O)nc2N1 [Example 14, (R)-9-fluoro-1-{3-[5-oxo-4-(3-oxo-3,4-dihydro-2H-pyrido[3,2-b][1,4]-thiazin-6-yl)-4,5-dihydro-[1,3,4]oxadiazol-2-yl]-propylamino}-1,2-dihydro-pyrrolo[3,2,1-ij]quinolin-4-one]"
0.125,0.063,≤ 0.016,≤ 0.016,≤ 0.016,"O=C1CSc2ccc(-n3nc(CCCN[C@@H]4Cn5c(=O)ccc6ccc(F)c4c65)oc3=O)cc2N1 [Example 15, (S)-9-fluoro-1-{3-[5-oxo-4-(3-oxo-3,4-dihydro-2H-benzo[1,4]-thiazin-6-yl)-4,5-dihydro-[1,3,4]oxadiazol-2-yl]-propylamino}-1,2-dihydro-pyrrolo[3,2,1-ij]quinolin-4-one]"
0.25,0.25,0.063,0.063,0.063,"O=C1CSc2ccc(-n3nc(CCCN[C@H]4Cn5c(=O)cnc6ccc(F)c4c65)oc3=O)nc2N1 [Example 16, (R)-7-fluoro-6-{3-[5-oxo-4-(3-oxo-3,4-dihydro-2H-pyrido[3,2-b][1,4]-thiazin-6-yl)-4,5-dihydro-[1,3,4]oxadiazol-2-yl]-propylamino}-5,6-dihydro-pyrrolo[1,2,3-de]quinoxalin-3-one]"
0.25,0.25,0.031,0.063,0.031,"O=C1CSc2ccc(-n3nc(CCCN[C@@H]4Cn5c(=O)ccc6ccc(F)c4c65)oc3=O)nc2N1 [Example 17, (S)-9-fluoro-1-{3-[5-oxo-4-(3-oxo-3,4-dihydro-2H-pyrido[3,2-b][1,4]-thiazin-6-yl)-4,5-dihydro-[1,3,4]oxadiazol-2-yl]-propylamino}-1,2-dihydro-pyrrolo[3,2,1-ij]quinolin-4-one]"
0.25,0.25,≤ 0.016,0.063,0.031,"O=C1CSc2ccc(-n3nc(CCCN[C@@H]4Cn5c(=O)cnc6ccc(F)c4c65)oc3=O)nc2N1 [Example 18, (S)-7-fluoro-6-{3-[5-oxo-4-(3-oxo-3,4-dihydro-2H-pyrido[3,2-b][1,4]-thiazin-6-yl)-4,5-dihydro-[1,3,4]oxadiazol-2-yl]-propylamino}-5,6-dihydro-pyrrolo[1,2,3-de]quinoxalin-3-one]"
≤ 0.016,0.25,0.031,≤ 0.016,≤ 0.016,"O=C1CSc2ccc(-n3nc(CCCN[C@H]4Cn5c(=O)ccc6ccc(F)c4c65)oc3=O)cc2N1 [Example 19, (R)-9-fluoro-1-{3-[5-oxo-4-(3-oxo-3,4-dihydro-2H-benzo[1,4]-thiazin-6-yl)-4,5-dihydro-[1,3,4]oxadiazol-2-yl]-propylamino}-1,2-dihydro-pyrrolo[3,2,1-ij]quinolin-4-one]"
